Assay results taken from patent US9624214B2, “Amino-substituted imidazo[1,2-a]pyridinecarboxamides and their use” (BAYER PHARMA AKTIENGESELLSCHAFT, priority 2012, dated 2017).

molecular target: T1, recombinant guanylate cyclase reporter cell line (Rattus norvegicus, UniProt P19686+P20595); assay: B-2. Action on recombinant guanylate cyclase reporter cell line; type: cell-based; details: MEC = minimal effective concentration; in some cases mean values from individual determinations
T1 construct: expressed in transfected cells
T1 sequence (P20595 1-619): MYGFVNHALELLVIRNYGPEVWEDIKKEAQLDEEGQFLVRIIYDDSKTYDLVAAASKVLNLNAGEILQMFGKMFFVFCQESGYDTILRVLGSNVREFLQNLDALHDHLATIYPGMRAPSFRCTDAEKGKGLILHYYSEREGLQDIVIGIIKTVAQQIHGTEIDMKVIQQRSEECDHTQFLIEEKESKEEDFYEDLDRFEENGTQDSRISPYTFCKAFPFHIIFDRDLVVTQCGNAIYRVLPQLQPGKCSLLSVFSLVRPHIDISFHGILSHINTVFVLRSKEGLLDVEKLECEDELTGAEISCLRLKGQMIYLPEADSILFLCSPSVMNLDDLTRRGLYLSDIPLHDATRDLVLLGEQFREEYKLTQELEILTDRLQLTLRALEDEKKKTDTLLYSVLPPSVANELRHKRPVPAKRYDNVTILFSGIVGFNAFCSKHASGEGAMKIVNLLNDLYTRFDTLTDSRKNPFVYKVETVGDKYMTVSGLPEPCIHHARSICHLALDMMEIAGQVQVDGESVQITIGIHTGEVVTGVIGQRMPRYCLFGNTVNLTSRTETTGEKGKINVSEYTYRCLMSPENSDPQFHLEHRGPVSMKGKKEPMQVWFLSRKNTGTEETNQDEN
T1 sequence (P19686 1-690): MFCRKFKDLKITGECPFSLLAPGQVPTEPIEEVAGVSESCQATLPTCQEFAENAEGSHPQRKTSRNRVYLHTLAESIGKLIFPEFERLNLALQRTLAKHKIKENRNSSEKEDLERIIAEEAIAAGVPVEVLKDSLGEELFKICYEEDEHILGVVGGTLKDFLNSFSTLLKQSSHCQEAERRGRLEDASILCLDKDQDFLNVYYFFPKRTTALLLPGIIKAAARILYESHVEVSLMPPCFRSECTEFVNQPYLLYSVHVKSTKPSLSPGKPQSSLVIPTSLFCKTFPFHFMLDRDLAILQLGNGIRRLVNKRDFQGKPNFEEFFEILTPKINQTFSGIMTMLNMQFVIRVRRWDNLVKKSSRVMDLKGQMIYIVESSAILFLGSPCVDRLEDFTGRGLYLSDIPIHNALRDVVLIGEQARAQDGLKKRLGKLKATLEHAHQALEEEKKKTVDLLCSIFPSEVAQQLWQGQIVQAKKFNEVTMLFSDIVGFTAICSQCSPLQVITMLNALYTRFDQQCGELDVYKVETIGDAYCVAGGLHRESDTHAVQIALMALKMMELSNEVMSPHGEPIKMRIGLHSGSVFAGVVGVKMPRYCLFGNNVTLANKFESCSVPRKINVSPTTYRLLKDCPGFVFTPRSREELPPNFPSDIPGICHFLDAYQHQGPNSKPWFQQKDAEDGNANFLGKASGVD
Method in brief: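 Whole-cell reporter assay with recombinant guanylate cyclase; endpoint = minimal effective concentration.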

| Structure (SMILES) | MEC [µM] |
| --- | --- |
| CCC1CC(NC(=O)c2c(C)nc3c(OCc4c(F)cccc4F)cc(C)cn23)c2nc(C(F)(F)F)ccc2N1 (single isomer, unassigned; ent-8) [Example 325, ent-8-[(2,6-Difluorobenzyl)oxy]-N-[2-ethyl-6-(trifluoromethyl)-1,2,3,4-tetrahydro-1,5-naphthyridin-4-yl]-2,6-dimethylimidazo[1,2-a]pyridine-3-carboxamide] | 0.30 |
| Cc1cc(OCc2c(F)cccc2F)c2nc(C)c(C(=O)NC(CN)c3cccc(OC(F)F)c3)n2c1 (racemic) [Example 392, rac-N-{2-amino-1-[3-(difluoromethoxy)phenyl]ethyl}-8-[(2,6-difluorobenzyl)oxy]-2,6-dimethylimidazo[1,2-a]pyridine-3-carboxamide] | 1.00 |
| Cc1cc(OCc2c(F)cccc2F)c2nc(C)c(C(=O)NC(CN)c3ccc(C#N)cc3)n2c1 (racemic) [Example 398, rac-N-[2-amino-1-(4-cyanophenyl)ethyl]-8-[(2,6-difluorobenzyl)oxy]-2,6-dimethylimidazo[1,2-a]pyridine-3-carboxamide] | 0.30 |
| COCC(C)(N)CNC(=O)c1c(C)nc2c(OCc3c(F)cccc3F)cccn12 (single isomer, unassigned) [Example 214, ent-N-(2-Amino-3-methoxy-2-methylpropyl)-8-[(2,6-difluorobenzyl)oxy]-2-methylimidazo[1,2-a]-pyridine-3-carboxamide] | 0.30 |
| Cc1cc(OCc2c(F)cccc2F)c2nc(C)c(C(=O)NC3CCC(N)C3)n2c1 (single isomer, unassigned) [Example 309, ent-N-(3-aminocyclopentyl)-8-[(2,6-difluorobenzyl)oxy]-2,6-dimethylimidazo[1,2-a]pyridine-3-carboxamide] | 0.30 |
| Cc1nc2c(OCc3c(F)cccc3F)cccn2c1C(=O)NCC(C)(N)CC(C)C (racemic) [Example 202, rac-N-(2-Amino-2,4-dimethylpentyl)-8-[(2,6-difluorobenzyl)oxy]-2-methylimidazo[1,2-a]pyridine-3-carboxamide] | 0.10 |
| C=Cc1cccc(C(CN)NC(=O)c2c(C)nc3c(OCc4c(F)cccc4F)cc(C)cn23)c1 (racemic) [Example 385, rac-N-[2-amino-1-(3-ethenylphenyl)ethyl]-8-[(2,6-difluorobenzyl)oxy]-2,6-dimethylimidazo[1,2-a]pyridine-3-carboxamide] | 1.00 |
| Cc1nc2c(OCc3c(F)cccc3F)cc(F)cn2c1C(=O)NC(CN)c1ccc(F)c(F)c1 (stereo not drawn) [Example 53, ent-N-[2-Amino-(3,4-difluorophenyl)ethyl]-8-[(2,6-difluorobenzyl)oxy]-6-fluoro-2-methylimidazo[1,2-a]pyridine-3-carboxamide] | 0.30 |
| Cc1nc2c(OCc3c(F)cccc3F)cccn2c1C(=O)NC(C)[C@@H](C)N (single isomer, unassigned) [Example 177] | 1.00 |
| Cc1nc2c(OCc3c(F)cccc3F)cccn2c1C(=O)NCC(N)CC(F)(F)F (single isomer, unassigned) [Example 127, ent-N-(2-Amino-4,4,4-trifluorobutyl)-8-[(2,6-difluorobenzyl)oxy]-2-methylimidazo[1,2-a]pyridine-3-carboxamide] | 1.00 |
| Cc1cc(OC(C)c2c(F)cccc2F)c2nc(C)c(C(=O)NCC(C)(C)N)n2c1 (single isomer, unassigned; enantiomer b) [Example 256, ent-N-(2-Amino-2-methylpropyl)-8-[1-(2,6-difluorophenyl)ethoxy]-2,6-dimethylimidazo[1,2-a]-pyridine-3-carboxamide (Enantiomer B)] | 3.00 |
| Cc1cc(OCc2c(F)cccc2F)c2nc(C)c(C(=O)NC3CCC3(C)N)n2c1 (single isomer, unassigned; enantiomer a) [Example 332, ent-N-[2-amino-2-methylcyclobutyl]-8-[(2,6-difluorobenzyl)oxy]-2,6-dimethylimidazo[1,2-a]pyridine-3-carboxamide (Enantiomer A)] | 1.00 |
| Cc1nc2c(OCc3c(F)cccc3F)cccn2c1C(=O)NCC(C)(N)CCOCc1ccccc1 (single isomer, unassigned; enantiomer b) [Example 267, ent-N-[2-Amino-4-(benzyloxy)-2-methylbutyl]-8-[(2,6-difluorobenzyl)oxy]-2-methylimidazo[1,2-a]pyridine-3-carboxamide (Enantiomer B)] | 0.10 |
| Cc1cc(OCc2c(F)cccc2F)c2nc(C)c(C(=O)NC3CNc4ccccc4C3)n2c1 (racemic) [Example 76, rac-8-[(2,6-difluorobenzyl)oxy]-2,6-dimethyl-N-(1,2,3,4-tetrahydroquinolin-3-yl)imidazo[1,2-a]-pyridine-3-carboxamide] | 0.30 |
| Cc1cc(OCc2c(F)cccc2F)c2nc(C)c(C(=O)NC(C)C3CCN(C)CC3)n2c1 (racemic) [Example 77, rac-8-[(2,6-difluorobenzyl)oxy]-2,6-dimethyl-N-[1-(1-methylpiperidin-4-yl)ethyl]imidazo[1,2-a]-pyridine-3-carboxamide] | 1.00 |

More lines, now with the values ahead:

| MEC [µM] | Structure (SMILES) |
| --- | --- |
| 0.30 | Cc1nc2c(OCc3c(F)cccc3F)cc(Cl)cn2c1C(=O)NCC(C)(N)CC(C)C (racemic) [Example 225, rac-N-(2-Amino-2,4-dimethylpentyl)-6-chloro-8-[(2,6-difluorobenzyl)oxy]-2-methylimidazo[1,2-a]pyridine-3-carboxamide] |
| 1.00 | CCCC(C)(N)CNC(=O)c1c(C)nc2c(OCc3cccc(F)c3)cc(C)cn12 (racemic) [Example 348, rac-N-(2-amino-2-methylpentyl)-8-[(3-fluorobenzyl)oxy]-2,6-dimethylimidazo[1,2-a]pyridine-3-carboxamide] |
| 0.10 | CCCC(C)(N)CNC(=O)c1c(CC)nc2c(OCc3c(F)cccc3F)cc(C)cn12 (racemic) [Example 301, rac-N-(2-amino-2-methylpentyl)-8-[(2,6-difluorobenzyl)oxy]-2-ethyl-6-methylimidazo[1,2-a]pyridine-3-carboxamide] |
| 0.30 | Cc1cc(OCc2c(F)cccc2F)c2nc(C)c(C(=O)NCC(C)(C)NCC(F)(F)F)n2c1 [Example 94, 8-[(2,6-Difluorobenzyl)oxy]-2,6-dimethyl-N-{2-methyl-2-[(2,2,2-trifluoroethyl)amino]propyl}-imidazo[1,2-a]pyridine-3-carboxamide] |
| 0.10 | CSCCC(CN)NC(=O)c1c(C)nc2c(OCc3c(F)cccc3F)cc(C)cn12 (racemic) [Example 391, rac-N-[1-amino-4-(methylsulfanyl)butan-2-yl]-8-[(2,6-difluorobenzyl)oxy]-2,6-dimethylimidazo[1,2-a]pyridine-3-carboxamide] |
| 0.1 | Cc1cc(OCc2c(F)cccc2F)c2nc(C)c(C(=O)NCC(C)(N)CF)n2c1 (single isomer, unassigned; enantiomer b) [Example 284, ent-N-(2-amino-3-fluoro-2-methylpropyl)-8-[(2,6-difluorobenzyl)oxy]-2,6-dimethylimidazo[1,2-a]pyridine-3-carboxamide (Enantiomer B)] |
| 0.30 | Cc1nc2c(OCc3c(F)cccc3F)cc(Cl)cn2c1C(=O)NCC(C)(N)CC(C)C (single isomer, unassigned) [Example 227, ent-N-(2-Amino-2,4-dimethylpentyl)-6-chloro-8-[(2,6-difluorobenzyl)oxy]-2-methylimidazo[1,2-a]pyridine-3-carboxamide] |
| 0.30 | COC(=O)[C@@H](N)CNC(=O)c1c(C)nc2c(OCc3c(F)cccc3F)cc(C)cn12 [Example 319, Methyl 3-[({8-[(2,6-difluorobenzyl)oxy]-2,6-dimethylimidazo[1,2-a]pyridin-3-yl}carbonyl)amino]-L-alaninate] |
| 3.00 | CCCC(C)(N)CNC(=O)c1c(C)nc2c(OCc3c(F)cccc3OC)cc(C)cn12 (racemic) [Example 351, rac-N-(2-amino-2-methylpentyl)-8-[(2-fluoro-6-methoxybenzyl)oxy]-2,6-dimethylimidazo[1,2-a]pyridine-3-carboxamide] |
